{
  "source": "ChEMBL document CHEMBL1157712",
  "about": "“Hit to lead account of the discovery of bisbenzamide and related ureidobenzamide inhibitors of Rho kinase” (J Med Chem, 2010)",
  "key": {"[1]": {"target": "Mitogen-activated protein kinase 10 (Homo sapiens) (UniProt P53779)", "sequence (P53779 whole entry)": "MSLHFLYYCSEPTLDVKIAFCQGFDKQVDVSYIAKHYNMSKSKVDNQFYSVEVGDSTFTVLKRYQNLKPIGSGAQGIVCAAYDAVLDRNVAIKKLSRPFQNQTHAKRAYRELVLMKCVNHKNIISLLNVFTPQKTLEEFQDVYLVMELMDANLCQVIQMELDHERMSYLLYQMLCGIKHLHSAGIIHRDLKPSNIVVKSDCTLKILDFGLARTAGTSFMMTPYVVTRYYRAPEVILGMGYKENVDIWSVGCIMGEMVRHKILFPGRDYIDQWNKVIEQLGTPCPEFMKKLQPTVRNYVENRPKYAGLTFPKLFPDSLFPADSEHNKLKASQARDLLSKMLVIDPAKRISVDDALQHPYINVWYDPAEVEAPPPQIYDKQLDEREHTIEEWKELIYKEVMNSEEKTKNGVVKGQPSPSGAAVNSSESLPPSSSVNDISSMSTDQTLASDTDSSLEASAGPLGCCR", "assay": "Inhibition of JNK3a1 at 3 uM relative to control; values are per cent of control"}, "[2]": {"assay": "Inhibition of PKBD at 3 uM relative to control; values are per cent of control"}, "[3]": {"target": "Aurora kinase B (Homo sapiens) (UniProt Q96GD4)", "sequence (Q96GD4 whole entry)": "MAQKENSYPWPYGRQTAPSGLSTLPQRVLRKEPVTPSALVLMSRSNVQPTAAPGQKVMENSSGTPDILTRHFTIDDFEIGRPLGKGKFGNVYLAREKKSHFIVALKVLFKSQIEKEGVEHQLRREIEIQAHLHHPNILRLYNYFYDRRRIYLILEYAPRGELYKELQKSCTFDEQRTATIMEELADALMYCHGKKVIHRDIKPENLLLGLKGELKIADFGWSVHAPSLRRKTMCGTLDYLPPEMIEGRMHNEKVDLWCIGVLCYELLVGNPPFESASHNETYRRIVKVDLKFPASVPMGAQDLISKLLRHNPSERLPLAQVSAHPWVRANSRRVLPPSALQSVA", "assay": "Inhibition of Aurora B at 3 uM relative to control; values are per cent of control"}, "[4]": {"target": "MAP/microtubule affinity-regulating kinase 3 (Homo sapiens) (UniProt P27448)", "sequence (P27448 whole entry, looked up)": "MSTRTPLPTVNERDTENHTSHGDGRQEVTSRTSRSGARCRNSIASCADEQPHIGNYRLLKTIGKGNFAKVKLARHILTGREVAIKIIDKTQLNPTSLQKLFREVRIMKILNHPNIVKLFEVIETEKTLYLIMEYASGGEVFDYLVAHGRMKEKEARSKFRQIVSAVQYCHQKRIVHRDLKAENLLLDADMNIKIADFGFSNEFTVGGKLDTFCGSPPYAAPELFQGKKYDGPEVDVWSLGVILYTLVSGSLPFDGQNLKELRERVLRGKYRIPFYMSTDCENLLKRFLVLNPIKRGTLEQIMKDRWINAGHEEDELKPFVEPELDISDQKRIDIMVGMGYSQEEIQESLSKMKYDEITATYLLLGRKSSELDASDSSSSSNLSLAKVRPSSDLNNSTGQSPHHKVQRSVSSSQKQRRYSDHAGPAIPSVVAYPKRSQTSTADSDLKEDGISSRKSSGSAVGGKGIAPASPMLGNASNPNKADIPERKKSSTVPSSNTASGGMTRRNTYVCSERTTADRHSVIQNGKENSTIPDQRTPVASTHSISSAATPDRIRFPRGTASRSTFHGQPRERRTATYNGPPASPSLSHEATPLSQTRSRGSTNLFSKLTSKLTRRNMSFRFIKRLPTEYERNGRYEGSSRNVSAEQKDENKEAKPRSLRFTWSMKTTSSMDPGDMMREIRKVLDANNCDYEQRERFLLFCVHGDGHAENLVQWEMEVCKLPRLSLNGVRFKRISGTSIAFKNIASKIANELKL", "assay": "Inhibition of MARK3 at 3 uM relative to control; values are per cent of control"}, "[5]": {"target": "Serine/threonine-protein kinase 3 (Homo sapiens) (UniProt Q13188)", "assay": "Inhibition of MST2 at 3 uM relative to control; values are per cent of control"}, "[6]": {"target": "MAP kinase-activated protein kinase 2 (Homo sapiens) (UniProt P49137)", "assay": "Inhibition of MAPKAPK2 at 3 uM relative to control; values are per cent of control"}, "[7]": {"target": "Myosin light chain kinase, smooth muscle (Homo sapiens) (UniProt Q15746)", "assay": "Inhibition of SMMLCK at 3 uM relative to control; values are per cent of control"}, "[8]": {"target": "Dual specificity tyrosine-phosphorylation-regulated kinase 1A (Homo sapiens) (UniProt Q13627)", "assay": "Inhibition of DYRK1A at 3 uM relative to control; values are per cent of control"}, "[9]": {"target": "MAP kinase-activated protein kinase 5 (Homo sapiens) (UniProt Q8IW41)", "assay": "Inhibition of PRAK at 3 uM relative to control; values are per cent of control"}, "[10]": {"target": "T1, Protein kinase C epsilon type (Homo sapiens, UniProt Q02156)", "T1 sequence (Q02156 whole entry)": "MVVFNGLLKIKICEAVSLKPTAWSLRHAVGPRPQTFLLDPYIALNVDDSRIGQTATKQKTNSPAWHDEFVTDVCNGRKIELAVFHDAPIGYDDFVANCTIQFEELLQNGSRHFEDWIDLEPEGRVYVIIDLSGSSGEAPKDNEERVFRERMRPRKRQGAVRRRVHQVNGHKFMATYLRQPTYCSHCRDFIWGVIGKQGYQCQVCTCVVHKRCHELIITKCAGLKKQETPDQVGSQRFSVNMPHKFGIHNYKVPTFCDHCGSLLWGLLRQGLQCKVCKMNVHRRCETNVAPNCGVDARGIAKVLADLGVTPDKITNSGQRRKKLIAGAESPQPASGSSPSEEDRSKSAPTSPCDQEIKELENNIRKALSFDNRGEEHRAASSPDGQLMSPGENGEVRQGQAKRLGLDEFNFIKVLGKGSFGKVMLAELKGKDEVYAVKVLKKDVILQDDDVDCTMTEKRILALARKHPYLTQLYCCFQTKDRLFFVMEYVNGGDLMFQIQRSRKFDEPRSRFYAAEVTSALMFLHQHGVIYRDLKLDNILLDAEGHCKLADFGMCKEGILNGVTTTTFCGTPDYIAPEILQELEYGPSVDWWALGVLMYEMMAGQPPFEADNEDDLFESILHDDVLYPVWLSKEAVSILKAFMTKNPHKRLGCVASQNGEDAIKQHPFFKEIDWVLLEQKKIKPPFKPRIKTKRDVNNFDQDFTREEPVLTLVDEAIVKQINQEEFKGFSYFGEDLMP", "assay": "Inhibition of PKCepsilon"}, "[11]": {"target": "Lymphokine-activated killer T-cell-originated protein kinase (Homo sapiens) (UniProt Q96KB5)", "assay": "Inhibition of PBK at 3 uM relative to control; values are per cent of control"}, "[12]": {"target": "Proto-oncogene tyrosine-protein kinase Src (Homo sapiens) (UniProt P12931)", "conditions": "3 to 6 uM", "description": "Inhibition of SRC at 3 to 6 uM relative to control"}, "Rattus norvegicus": {"species": "Rattus norvegicus", "assay": "Induction of relaxation activity of phenylephrine-induced Sprague-Dawley rat aortic ring contraction", "assay_type": "functional", "conditions": "Aorta"}, "[13]": {"target": "Ribosomal protein S6 kinase alpha-3 (Homo sapiens) (UniProt P51812)", "conditions": "3 to 6 uM", "description": "Inhibition of RSK2 at 3 to 6 uM relative to control"}, "[14]": {"target": "Mitogen-activated protein kinase kinase kinase 11 (Homo sapiens, UniProt Q16584)", "sequence (Q16584 whole entry)": "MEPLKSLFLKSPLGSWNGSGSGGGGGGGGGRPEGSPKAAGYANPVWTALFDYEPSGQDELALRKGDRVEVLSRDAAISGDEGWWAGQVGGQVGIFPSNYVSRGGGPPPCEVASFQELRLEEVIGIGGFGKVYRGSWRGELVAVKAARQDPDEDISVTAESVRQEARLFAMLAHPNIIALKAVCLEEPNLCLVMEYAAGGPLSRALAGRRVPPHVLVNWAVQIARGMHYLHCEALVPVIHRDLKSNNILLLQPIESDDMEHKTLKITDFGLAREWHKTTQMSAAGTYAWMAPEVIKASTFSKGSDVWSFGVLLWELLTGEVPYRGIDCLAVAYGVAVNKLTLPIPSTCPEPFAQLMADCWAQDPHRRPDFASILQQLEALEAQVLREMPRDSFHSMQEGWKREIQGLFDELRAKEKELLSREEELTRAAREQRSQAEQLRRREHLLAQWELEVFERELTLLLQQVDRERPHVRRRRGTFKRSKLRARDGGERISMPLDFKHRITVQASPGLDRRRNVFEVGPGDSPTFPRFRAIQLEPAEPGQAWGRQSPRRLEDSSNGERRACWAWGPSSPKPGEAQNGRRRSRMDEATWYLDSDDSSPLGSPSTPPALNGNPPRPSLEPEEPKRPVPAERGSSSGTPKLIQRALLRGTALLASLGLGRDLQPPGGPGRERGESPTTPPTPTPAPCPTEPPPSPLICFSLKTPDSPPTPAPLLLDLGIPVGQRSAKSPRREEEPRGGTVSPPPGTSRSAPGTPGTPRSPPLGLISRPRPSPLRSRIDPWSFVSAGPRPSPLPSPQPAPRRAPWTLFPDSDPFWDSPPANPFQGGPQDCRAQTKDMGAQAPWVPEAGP", "assay": "Inhibition of MAP3K11"}, "[15]": {"target": "Serine/threonine-protein kinase pim-2 (Homo sapiens, UniProt Q9P1W9)", "assay": "Inhibition of PIM2"}, "[16]": {"target": "Tyrosine-protein kinase JAK3 (Homo sapiens) (UniProt P52333)", "conditions": "3 to 6 uM", "description": "Inhibition of JAK3 at 3 to 6 uM relative to control"}, "[17]": {"target": "Serine/threonine-protein kinase PLK1 (Homo sapiens, UniProt P53350)", "assay": "Inhibition of PLK"}, "[18]": {"target": "Inhibitor of nuclear factor kappa-B kinase subunit epsilon (Homo sapiens) (UniProt Q14164)", "conditions": "3 to 6 uM", "description": "Inhibition of IKKE at 3 to 6 uM relative to control"}, "[19]": {"target": "Serine/threonine-protein kinase Sgk1 (Homo sapiens) (UniProt O00141)", "sequence (O00141 whole entry)": "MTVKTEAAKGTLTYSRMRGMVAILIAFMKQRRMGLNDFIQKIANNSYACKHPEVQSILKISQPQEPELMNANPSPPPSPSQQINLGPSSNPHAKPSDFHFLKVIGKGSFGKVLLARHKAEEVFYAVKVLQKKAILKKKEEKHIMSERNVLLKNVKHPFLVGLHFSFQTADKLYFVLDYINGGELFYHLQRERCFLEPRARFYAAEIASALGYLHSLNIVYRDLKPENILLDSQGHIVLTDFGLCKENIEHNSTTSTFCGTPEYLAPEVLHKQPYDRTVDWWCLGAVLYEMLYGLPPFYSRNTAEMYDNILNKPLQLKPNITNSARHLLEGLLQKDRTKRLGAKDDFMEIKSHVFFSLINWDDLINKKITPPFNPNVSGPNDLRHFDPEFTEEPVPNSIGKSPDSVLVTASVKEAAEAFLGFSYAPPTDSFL", "conditions": "3 to 6 uM", "description": "Inhibition of SGK at 3 to 6 uM relative to control"}, "[20]": {"target": "Aurora kinase B (Homo sapiens) (UniProt Q96GD4)", "conditions": "3 to 6 uM", "description": "Inhibition of Aurora B at 3 to 6 uM relative to control"}, "[21]": {"target": "Serine/threonine-protein kinase mTOR (Homo sapiens) (UniProt P42345)", "conditions": "3 to 6 uM", "description": "Inhibition of mTOR at 3 to 6 uM relative to control"}, "[22]": {"target": "Glycogen synthase kinase-3 beta (Homo sapiens) (UniProt P49841)", "conditions": "3 to 6 uM", "description": "Inhibition of GSK3-beta at 3 to 6 uM relative to control"}, "Focal adhesion kinase 1": {"target": "Focal adhesion kinase 1 (Homo sapiens, UniProt Q05397)", "sequence (Q05397 whole entry)": "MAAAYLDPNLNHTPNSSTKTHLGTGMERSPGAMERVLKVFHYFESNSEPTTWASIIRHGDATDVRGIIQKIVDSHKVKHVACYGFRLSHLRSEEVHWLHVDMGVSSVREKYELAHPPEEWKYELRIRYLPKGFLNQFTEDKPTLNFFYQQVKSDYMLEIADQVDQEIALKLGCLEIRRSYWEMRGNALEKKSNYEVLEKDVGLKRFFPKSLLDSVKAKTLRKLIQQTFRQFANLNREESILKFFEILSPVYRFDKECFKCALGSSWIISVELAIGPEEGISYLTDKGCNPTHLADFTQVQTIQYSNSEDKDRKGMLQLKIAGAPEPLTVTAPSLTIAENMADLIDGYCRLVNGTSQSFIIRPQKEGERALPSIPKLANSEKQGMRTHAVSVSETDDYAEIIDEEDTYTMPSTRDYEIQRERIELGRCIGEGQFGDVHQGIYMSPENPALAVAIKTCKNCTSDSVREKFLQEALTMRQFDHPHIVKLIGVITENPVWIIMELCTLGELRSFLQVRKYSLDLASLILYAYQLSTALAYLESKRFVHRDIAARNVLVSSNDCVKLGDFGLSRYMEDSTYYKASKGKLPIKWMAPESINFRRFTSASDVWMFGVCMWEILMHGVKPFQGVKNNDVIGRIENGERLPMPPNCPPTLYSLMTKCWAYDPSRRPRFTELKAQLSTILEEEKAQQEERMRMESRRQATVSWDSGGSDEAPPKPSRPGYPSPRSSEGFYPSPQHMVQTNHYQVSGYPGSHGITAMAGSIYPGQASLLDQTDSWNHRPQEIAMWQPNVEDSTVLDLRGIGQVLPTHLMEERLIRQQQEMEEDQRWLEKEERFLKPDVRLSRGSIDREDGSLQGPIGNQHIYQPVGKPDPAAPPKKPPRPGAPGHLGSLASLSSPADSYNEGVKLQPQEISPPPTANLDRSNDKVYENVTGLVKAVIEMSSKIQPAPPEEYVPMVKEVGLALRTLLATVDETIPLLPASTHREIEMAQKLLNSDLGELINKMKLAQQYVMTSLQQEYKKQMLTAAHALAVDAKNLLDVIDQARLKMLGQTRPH", "assay": "Inhibition of PTK2"}, "[23]": {"target": "Protein kinase C alpha type (Homo sapiens) (UniProt P17252)", "conditions": "3 to 6 uM", "description": "Inhibition of PKCalpha at 3 to 6 uM relative to control"}, "[24]": {"target": "Mitogen-activated protein kinase 10 (Homo sapiens) (UniProt P53779)", "conditions": "3 to 6 uM", "description": "Inhibition of JNK3a1 at 3 to 6 uM relative to control"}, "Cytochrome P450 3A4": {"target": "Cytochrome P450 3A4 (Homo sapiens, UniProt P08684)", "assay": "Inhibition of human CYP3A4 by LCMS/MS assay", "assay_type": "ADME"}, "[25]": {"target": "MAP/microtubule affinity-regulating kinase 3 (Homo sapiens) (UniProt P27448)", "conditions": "3 to 6 uM", "description": "Inhibition of MARK3 at 3 to 6 uM relative to control"}, "[26]": {"target": "Discoidin domain-containing receptor 2 (Homo sapiens) (UniProt Q16832)", "sequence (Q16832 whole entry, the tested form may be a part)": "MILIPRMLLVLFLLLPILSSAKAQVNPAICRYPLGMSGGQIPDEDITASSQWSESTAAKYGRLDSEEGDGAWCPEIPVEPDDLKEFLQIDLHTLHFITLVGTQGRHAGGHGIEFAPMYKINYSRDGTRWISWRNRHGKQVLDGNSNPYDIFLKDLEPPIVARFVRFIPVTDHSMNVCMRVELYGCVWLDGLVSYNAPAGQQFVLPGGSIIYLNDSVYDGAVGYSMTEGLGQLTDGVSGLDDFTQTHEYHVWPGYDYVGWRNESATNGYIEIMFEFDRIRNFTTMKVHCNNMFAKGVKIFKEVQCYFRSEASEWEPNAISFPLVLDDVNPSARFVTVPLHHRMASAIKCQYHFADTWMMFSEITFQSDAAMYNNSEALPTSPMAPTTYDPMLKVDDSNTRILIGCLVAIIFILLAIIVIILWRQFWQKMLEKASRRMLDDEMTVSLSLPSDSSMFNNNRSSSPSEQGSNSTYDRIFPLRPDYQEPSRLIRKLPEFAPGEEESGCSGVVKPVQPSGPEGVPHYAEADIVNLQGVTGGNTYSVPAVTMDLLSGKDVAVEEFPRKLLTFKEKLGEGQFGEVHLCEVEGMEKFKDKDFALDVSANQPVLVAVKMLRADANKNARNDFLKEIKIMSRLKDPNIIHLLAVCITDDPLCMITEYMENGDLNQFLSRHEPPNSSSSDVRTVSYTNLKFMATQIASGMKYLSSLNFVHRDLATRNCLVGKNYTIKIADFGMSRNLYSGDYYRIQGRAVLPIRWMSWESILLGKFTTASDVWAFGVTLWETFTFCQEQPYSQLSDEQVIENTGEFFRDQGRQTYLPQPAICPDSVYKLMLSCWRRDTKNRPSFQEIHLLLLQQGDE", "conditions": "3 to 6 uM", "description": "Inhibition of DDR2 at 3 to 6 uM relative to control"}, "[27]": {"target": "MAP kinase-interacting serine/threonine-protein kinase 1 (Homo sapiens) (UniProt Q9BUB5)", "conditions": "3 to 6 uM", "description": "Inhibition of MNK1 at 3 to 6 uM relative to control"}, "[28]": {"target": "Serine/threonine-protein kinase D1 (Homo sapiens) (UniProt Q15139)", "conditions": "3 to 6 uM", "description": "Inhibition of PKD1 at 3 to 6 uM relative to control"}},
  "data": [
    {"molecule": "NC(=O)c1ccc(NC(=O)NCc2cccc(C(=O)Nc3ccc4c(c3)CNCC4)c2)cc1", "values": [
      {"measurement": "residual activity", "setting": "[1]", "result": "> 50", "unit": "%"},
      {"measurement": "residual activity", "setting": "[2]", "result": "> 50", "unit": "%"},
      {"measurement": "residual activity", "setting": "[3]", "result": "> 50", "unit": "%"},
      {"measurement": "residual activity", "setting": "[4]", "result": "> 50", "unit": "%"},
      {"measurement": "residual activity", "setting": "[5]", "result": "> 50", "unit": "%"},
      {"measurement": "residual activity", "setting": "[6]", "result": "> 50", "unit": "%"},
      {"measurement": "residual activity", "setting": "[7]", "result": "> 50", "unit": "%"},
      {"measurement": "residual activity", "setting": "[8]", "result": "> 50", "unit": "%"},
      {"measurement": "residual activity", "setting": "[9]", "result": "> 50", "unit": "%"},
      {"measurement": "IC50", "setting": "[10]", "result": "> 5", "unit": "µM"},
      {"measurement": "residual activity", "setting": "[11]", "result": "> 50", "unit": "%"}
    ]},
    {"molecule": "COc1ccc(C(=O)NCc2cccc(C(=O)Nc3ccc4c(c3)CNCC4)c2)cc1OC", "values": [
      {"measurement": "residual activity", "setting": "[12]", "result": "> 50", "unit": "%"},
      {"measurement": "IC50", "setting": "Rattus norvegicus", "result": 6.4, "unit": "µM"},
      {"measurement": "residual activity", "setting": "[13]", "result": "> 50", "unit": "%"},
      {"measurement": "IC50", "setting": "[14]", "result": "> 10", "unit": "µM"},
      {"measurement": "IC50", "setting": "[15]", "result": "> 10", "unit": "µM"},
      {"measurement": "residual activity", "setting": "[16]", "result": "> 50", "unit": "%"},
      {"measurement": "IC50", "setting": "[17]", "result": "> 10", "unit": "µM"},
      {"measurement": "residual activity", "setting": "[18]", "result": "> 50", "unit": "%"},
      {"measurement": "residual activity", "setting": "[19]", "result": "> 50", "unit": "%"},
      {"measurement": "residual activity", "setting": "[20]", "result": "> 50", "unit": "%"},
      {"measurement": "residual activity", "setting": "[21]", "result": "> 50", "unit": "%"},
      {"measurement": "residual activity", "setting": "[22]", "result": "> 50", "unit": "%"},
      {"measurement": "IC50", "setting": "Focal adhesion kinase 1", "result": "> 10", "unit": "µM"},
      {"measurement": "residual activity", "setting": "[23]", "result": "> 50", "unit": "%"},
      {"measurement": "residual activity", "setting": "[24]", "result": "> 50", "unit": "%"},
      {"measurement": "IC50", "setting": "Cytochrome P450 3A4", "result": "> 30", "unit": "µM"},
      {"measurement": "residual activity", "setting": "[25]", "result": "> 50", "unit": "%"},
      {"measurement": "residual activity", "setting": "[26]", "result": "> 50", "unit": "%"},
      {"measurement": "residual activity", "setting": "[27]", "result": "> 50", "unit": "%"},
      {"measurement": "residual activity", "setting": "[28]", "result": "> 50", "unit": "%"}
    ]}
  ]
}
